Data on 34 molecules can be found in patent publication US8143408B2, “N-(8-heteroaryltetrahydronaphtalene-2yl) or N-(5-heteroarylchromane-3-yl) carboxamide derivatives for the treatment of pain” (AstraZeneca AB, priority 2007, dated 2012).

The assay deals with T1, Nav1.7 voltage-gated sodium channel (Homo sapiens, UniProt Q15858).
T1 construct: Gene(s) encoding the full-length protein of the voltage-gated sodium channel of interest are cloned and expressed; expressed in transfected cells
The assay is described as follows: Whole-cell voltage clamp electrophysiology assay. It counts as cell-based. The conditions noted are these: cells stably expressing the voltage-gated sodium channel of interest. The text has this:
Gene(s) encoding the full-length protein of the voltage-gated sodium channel of interest are cloned and expressed under a suitable promoter in a suitable cell line, as well known in the art. […] Suitable screening assays are as follows.
Electrophysiological studies can be performed using automated patch-clamp electrophysiology platforms, like IonWorks HT, IonWorks Quattro, PatchXpress, QPatch or any other suitable platform. […] Suitable extracellular and intracellular buffer for such experiments are applied according to the instructions given by the manufacturer of the automated patch-clamp platforms. Cells that express the voltage-gated sodium channel protein of interest are exposed to drugs through the pipetting system integrated in the platforms. A suitable voltage stimulus protocol is used to activate the voltage-gated sodium channel proteins of interest through depolarisation from a defined holding potential.
Electrophysiological studies can also be performed using the whole cell configuration of the standard patch clamp technique. In this assay, cells that express the voltage-gated sodium channel protein of interest are exposed to the drugs by conventional microperfusion systems and a suitable voltage stimulus protocol is used to activate the voltage-gated sodium channels.

T1 sequence (Q15858 whole entry): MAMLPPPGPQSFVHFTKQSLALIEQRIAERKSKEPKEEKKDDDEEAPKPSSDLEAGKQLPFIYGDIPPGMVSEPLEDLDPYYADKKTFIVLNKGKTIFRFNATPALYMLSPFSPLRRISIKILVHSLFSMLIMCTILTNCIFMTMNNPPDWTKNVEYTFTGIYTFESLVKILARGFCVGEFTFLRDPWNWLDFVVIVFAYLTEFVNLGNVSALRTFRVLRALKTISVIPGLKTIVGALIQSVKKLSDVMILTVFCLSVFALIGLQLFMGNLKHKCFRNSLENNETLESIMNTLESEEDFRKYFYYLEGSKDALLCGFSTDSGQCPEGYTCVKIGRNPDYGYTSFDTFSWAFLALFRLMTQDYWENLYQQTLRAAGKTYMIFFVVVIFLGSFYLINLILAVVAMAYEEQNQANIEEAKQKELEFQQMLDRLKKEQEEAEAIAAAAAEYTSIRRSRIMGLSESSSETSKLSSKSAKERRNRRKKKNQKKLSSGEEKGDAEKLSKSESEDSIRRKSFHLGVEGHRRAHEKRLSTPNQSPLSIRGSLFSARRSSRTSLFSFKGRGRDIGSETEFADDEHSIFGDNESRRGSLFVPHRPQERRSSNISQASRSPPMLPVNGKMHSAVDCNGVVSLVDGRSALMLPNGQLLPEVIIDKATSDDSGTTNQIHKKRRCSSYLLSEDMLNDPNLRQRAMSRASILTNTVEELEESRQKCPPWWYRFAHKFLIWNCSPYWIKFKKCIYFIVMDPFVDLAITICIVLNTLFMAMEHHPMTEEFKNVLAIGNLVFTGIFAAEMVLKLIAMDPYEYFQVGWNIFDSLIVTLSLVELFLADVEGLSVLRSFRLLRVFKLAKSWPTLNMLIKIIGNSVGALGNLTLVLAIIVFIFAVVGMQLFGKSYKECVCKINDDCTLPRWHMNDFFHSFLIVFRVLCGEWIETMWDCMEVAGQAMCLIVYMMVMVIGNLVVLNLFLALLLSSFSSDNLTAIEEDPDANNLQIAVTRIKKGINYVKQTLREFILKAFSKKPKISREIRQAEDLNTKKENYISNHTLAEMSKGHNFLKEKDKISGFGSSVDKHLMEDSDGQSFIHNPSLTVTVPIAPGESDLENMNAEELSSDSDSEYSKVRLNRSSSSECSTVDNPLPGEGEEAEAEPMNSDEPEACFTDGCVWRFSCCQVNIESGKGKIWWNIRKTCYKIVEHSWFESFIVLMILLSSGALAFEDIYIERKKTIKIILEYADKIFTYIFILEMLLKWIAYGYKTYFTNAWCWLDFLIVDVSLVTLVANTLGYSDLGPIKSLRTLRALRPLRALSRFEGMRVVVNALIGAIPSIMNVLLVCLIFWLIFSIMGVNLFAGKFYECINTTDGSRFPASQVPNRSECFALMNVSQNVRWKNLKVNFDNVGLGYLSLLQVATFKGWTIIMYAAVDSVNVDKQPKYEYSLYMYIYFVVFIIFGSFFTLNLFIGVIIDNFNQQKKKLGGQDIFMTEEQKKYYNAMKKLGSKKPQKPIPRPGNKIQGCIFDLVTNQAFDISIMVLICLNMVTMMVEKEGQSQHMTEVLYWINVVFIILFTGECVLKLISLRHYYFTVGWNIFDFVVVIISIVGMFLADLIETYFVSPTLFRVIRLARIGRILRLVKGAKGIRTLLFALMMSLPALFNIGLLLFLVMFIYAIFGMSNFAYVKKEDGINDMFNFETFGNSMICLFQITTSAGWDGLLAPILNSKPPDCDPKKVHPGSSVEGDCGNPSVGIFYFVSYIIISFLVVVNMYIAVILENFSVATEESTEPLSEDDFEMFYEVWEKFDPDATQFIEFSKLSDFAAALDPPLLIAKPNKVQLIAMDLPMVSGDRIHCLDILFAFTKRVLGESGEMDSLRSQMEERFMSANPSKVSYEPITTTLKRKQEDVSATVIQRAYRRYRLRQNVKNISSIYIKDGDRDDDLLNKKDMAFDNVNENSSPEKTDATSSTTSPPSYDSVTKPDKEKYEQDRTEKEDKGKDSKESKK

Take `COc1cnc(C(=O)N[C@@H]2COc3cccc(-c4ccncc4)c3C2)cn1` [Example 37, 5-methoxy-N-[(3S)-5-pyridin-4-yl-3,4-dihydro-2H-chromen-3-yl]pyrazine-2-carboxamide]: the IC50 was 1000 nM. As for `CC(C)Oc1cnc(C(=O)N[C@@H]2COc3cccc(-c4ccncc4)c3C2)cn1` [Example 38, 5-isopropoxy-N-[(3S)-5-pyridin-4-yl-3,4-dihydro-2H-chromen-3-yl]pyrazine-2-carboxamide], the figure is 631 nM. Take `CC(C)Oc1ccc(C(=O)N[C@@H]2CCc3cccc(-c4ccncc4F)c3C2)cn1` [Example 39, N-[(2R)-8-(3-fluoropyridin-4-yl)-1,2,3,4-tetrahydronaphthalen-2-yl]-6-isopropoxynicotinamide]: the IC50 is 126 nM. `O=C(N[C@@H]1CCc2cccc(-c3ccncc3F)c2C1)c1ccc(OCC(F)(F)F)nc1` [Example 40, N-[(2R)-8-(3-fluoropyridin-4-yl)-1,2,3,4-tetrahydronaphthalen-2-yl]-6-(2,2,2-trifluoroethoxy)nicotinamide]: inhibition was half-maximal at 50.1 nM (IC50). For `O=C(N[C@@H]1COc2cccc(-c3ccncc3)c2C1)c1cnc2ccccc2n1` [Example 41, N-[(3S)-5-pyridin-4-yl-3,4-dihydro-2H-chromen-3-yl]quinoxaline-2-carboxamide] the value was 5010 nM; for `CC(C)Oc1cnc(C(=O)N[C@@H]2COc3cccc(-c4cccnc4)c3C2)cn1` [Example 42, 5-isopropoxy-N-[(3S)-5-pyridin-3-yl-3,4-dihydro-2H-chromen-3-yl]pyrazine-2-carboxamide], 1000 nM. For `O=C(N[C@@H]1COc2cccc(-c3cccnc3)c2C1)c1cnc(OCCC(F)(F)F)cn1` [Example 43, N-[(3S)-5-pyridin-3-yl-3,4-dihydro-2H-chromen-3-yl]-5-(3,3,3-trifluoropropoxy)pyrazine-2-carboxamide] the value was 501 nM. `COc1cnc(C(=O)N[C@@H]2COc3cccc(-c4cccnc4)c3C2)cn1` [Example 44, 5-methoxy-N-[(3S)-5-pyridin-3-yl-3,4-dihydro-2H-chromen-3-yl]pyrazine-2-carboxamide] gave an IC50 of 631 nM. On to `O=C(N[C@@H]1COc2cccc(-c3cccnc3)c2C1)c1ccc2cccnc2n1` [Example 45, N-[(3S)-5-pyridin-3-yl-3,4-dihydro-2H-chromen-3-yl]-1,8-naphthyridine-2-carboxamide], for which half-maximal inhibition (IC50) required 1260 nM. In the case of `O=C(N[C@@H]1COc2cccc(-c3cccnc3)c2C1)c1ccc2ncccc2n1` [Example 46, N-[(3S)-5-pyridin-3-yl-3,4-dihydro-2H-chromen-3-yl]-1,5-naphthyridine-2-carboxamide], inhibition was half-maximal at 3160 nM (IC50). For `COc1ccc(-c2cccc3c2C[C@H](NC(=O)c2cnc(OCCC(F)(F)F)cn2)CO3)cn1` [Example 48, N-[(3S)-5-(6-methoxypyridin-3-yl)-3,4-dihydro-2H-chromen-3-yl]-5-(3,3,3-trifluoropropoxy)pyrazine-2-carboxamide] the value was 631 nM; for `COc1ccc(-c2cccc3c2C[C@H](NC(=O)c2cnc(OC)cn2)CO3)cn1` [Example 49, 5-methoxy-N-[(3S)-5-(6-methoxypyridin-3-yl)-3,4-dihydro-2H-chromen-3-yl]pyrazine-2-carboxamide], 1260 nM; for `CC(C)Oc1ccc(C(=O)N[C@@H]2COc3cccc(-c4cccnc4)c3C2)cn1` [Example 50, 6-isopropoxy-N-[(3S)-5-pyridin-3-yl-3,4-dihydro-2H-chromen-3-yl]nicotinamide], 63.1 nM. On to `O=C(N[C@@H]1COc2cccc(-c3cccnc3)c2C1)c1ccc(OCCC(F)(F)F)nc1` [Example 51, N-[(3S)-5-pyridin-3-yl-3,4-dihydro-2H-chromen-3-yl]-6-(3,3,3-trifluoropropoxy)nicotinamide], for which the IC50 was 39.8 nM. For `Cc1nn(CC(C)C)nc1C(=O)N[C@@H]1COc2cccc(-c3cccnc3)c2C1` [Example 52, 2-isobutyl-5-methyl-N-[(3S)-5-pyridin-3-yl-3,4-dihydro-2H-chromen-3-yl]-2H-1,2,3-triazole-4-carboxamide] the value was 3980 nM; for `CC(C)Oc1ccc(C(=O)N[C@@H]2COc3cccc(-c4cncnc4)c3C2)cn1` [Example 53, 6-isopropoxy-N-[(3S)-5-pyrimidin-5-yl-3,4-dihydro-2H-chromen-3-yl]nicotinamide], 251 nM. For the molecule `O=C(N[C@@H]1COc2cccc(-c3cncnc3)c2C1)c1ccc(OCCC(F)(F)F)nc1` [Example 54, N-[(3S)-5-pyrimidin-5-yl-3,4-dihydro-2H-chromen-3-yl]-6-(3,3,3-trifluoropropoxy)nicotinamide], the IC50 was 63.1 nM. In turn, `COc1ncc(-c2cccc3c2C[C@H](NC(=O)c2ccc(OC(C)C)nc2)CO3)cn1` [Example 55, 6-isopropoxy-N-[(3S)-5-(2-methoxypyrimidin-5-yl)-3,4-dihydro-2H-chromen-3-yl]nicotinamide] showed an IC50 of 316 nM. For `COc1cc(-c2cccc3c2C[C@H](NC(=O)c2ccc(OC(C)C)nc2)CO3)ccn1` [Example 58, 6-isopropoxy-N-[(3S)-5-(2-methoxypyridin-4-yl)-3,4-dihydro-2H-chromen-3-yl]nicotinamide] the value was 398 nM; for `COc1cc(-c2cccc3c2C[C@H](NC(=O)c2ccc(OCCC(F)(F)F)nc2)CO3)ccn1` [Example 59, N-[(3S)-5-(2-methoxypyridin-4-yl)-3,4-dihydro-2H-chromen-3-yl]-6-(3,3,3-trifluoropropoxy)nicotinamide], 126 nM; for `Cc1ncc(-c2cccc3c2C[C@H](NC(=O)c2ccc(OC(C)C)nc2)CO3)cn1` [Example 60, 6-isopropoxy-N-[(3S)-5-(2-methylpyrimidin-5-yl)-3,4-dihydro-2H-chromen-3-yl]nicotinamide], 158 nM. As for `Cc1ncc(-c2cccc3c2C[C@H](NC(=O)c2ccc(OCCC(F)(F)F)nc2)CO3)cn1` [Example 61, N-[(3S)-5-(2-methylpyrimidin-5-yl)-3,4-dihydro-2H-chromen-3-yl]-6-(3,3,3-trifluoropropoxy)nicotinamide], the figure is 50.1 nM. `CC(C)Oc1ccc(C(=O)N[C@@H]2COc3cccc(-c4ccnc(F)c4)c3C2)cn1` [Example 62, N-[(3S)-5-(2-fluoropyridin-4-yl)-3,4-dihydro-2H-chromen-3-yl]-6-isopropoxynicotinamide]: the IC50 is 251 nM.

The molecule `O=C(N[C@@H]1COc2cccc(-c3ccnc(F)c3)c2C1)c1ccc(OCCC(F)(F)F)nc1` [Example 63, N-[(3S)-5-(2-fluoropyridin-4-yl)-3,4-dihydro-2H-chromen-3-yl]-6-(3,3,3-trifluoropropoxy)nicotinamide] gave an IC50 of 79.4 nM.

Molecule `O=C(N[C@@H]1COc2cccc(-c3cccnc3)c2C1)c1ccc2ccccc2n1` [Example 65, N-[(3S)-5-pyridin-3-yl-3,4-dihydro-2H-chromen-3-yl]quinoline-2-carboxamide] had an IC50 of 5010 nM. For `Cc1cnccc1-c1cccc2c1C[C@H](NC(=O)c1ccc(OC(C)C)nc1)CO2` [Example 66, 6-isopropoxy-N-[(3S)-5-(3-methylpyridin-4-yl)-3,4-dihydro-2H-chromen-3-yl]nicotinamide] the value was 158 nM; for `CC(C)Oc1ccc(C(=O)N[C@@H]2COc3cccc(-c4ccc(F)nc4)c3C2)cn1` [Example 67, N-[(3S)-5-(6-fluoropyridin-3-yl)-3,4-dihydro-2H-chromen-3-yl]-6-isopropoxynicotinamide], 501 nM. In the case of `Cc1cnccc1-c1cccc2c1C[C@H](NC(=O)c1ccc(OCCC(F)(F)F)nc1)CO2` [Example 68, N-[(3S)-5-(3-methylpyridin-4-yl)-3,4-dihydro-2H-chromen-3-yl]-6-(3,3,3-trifluoropropoxy)nicotinamide], the midpoint of inhibition, the IC50, lay at 100 nM. As for `O=C(N[C@@H]1COc2cccc(-c3ccc(F)nc3)c2C1)c1ccc(OCCC(F)(F)F)nc1` [Example 69, N-[(3S)-5-(6-fluoropyridin-3-yl)-3,4-dihydro-2H-chromen-3-yl]-6-(3,3,3-trifluoropropoxy)nicotinamide], the figure is 79.4 nM. `COc1ccc(-c2ccc(C(=O)N[C@@H]3COc4cccc(-c5ccncc5)c4C3)cn2)c(OC)c1` [Example 70, 6-(2,4-dimethoxyphenyl)-N-[(3S)-5-pyridin-4-yl-3,4-dihydro-2H-chromen-3-yl]nicotinamide]: the IC50 was 1000 nM. As for `COc1ncccc1-c1cccc2c1C[C@H](NC(=O)c1ccc(OC(C)C)nc1)CO2` [Example 71, 6-isopropoxy-N-[(3S)-5-(2-methoxypyridin-3-yl)-3,4-dihydro-2H-chromen-3-yl]nicotinamide], the figure is 2000 nM. For `COc1ncccc1-c1cccc2c1C[C@H](NC(=O)c1ccc(OCCC(F)(F)F)nc1)CO2` [Example 72, N-[(3S)-5-(2-methoxypyridin-3-yl)-3,4-dihydro-2H-chromen-3-yl]-6-(3,3,3-trifluoropropoxy)nicotinamide] the value was 501 nM; for `COc1ncc(-c2cccc3c2C[C@@H](NC(=O)c2ccc(OC(C)C)nc2)CC3)cn1` [Example 73, 6-isopropoxy-N-[(2S)-8-(2-methoxypyrimidin-5-yl)-1,2,3,4-tetrahydronaphthalen-2-yl]nicotinamide], 3980 nM; for `CC(C)Oc1ccc(C(=O)N[C@@H]2CCc3cccc(-c4cccnc4F)c3C2)cn1` [Example 74, N-[(2R)-8-(2-fluoropyridin-3-yl)-1,2,3,4-tetrahydronaphthalen-2-yl]-6-isopropoxynicotinamide], 251 nM.
